In patent US20220064167A1, “IMIDAZO-PYRAZOLE CARBOXAMIDE DERIVATIVES AS ANTICANCER AGENTS AND THE SYNTHESIS THEREOF” (AVIDIN KFT., priority 2018, published 2022):

How the values were obtained:
[1] = test system: human primary fibroblasts; assay: resazurin viability assay on primary fibroblasts, Example 103 (FIG. 1); format: cell-based; details: 72 h incubation, applied concentration range 1.6 nM-5 μM
Text: To obtain primary human fibroblasts healthy volunteers (age 18-60 years) were enrolled into the study. The punch biopsies were taken from healthy subjects from the breast area undergoing plastic surgery. Primary fibroblasts were obtained from the skin by enzymatic digestion according to a standard protocol. Skin specimens were first washed in Salsol A solution (Human Rt, Gödöllö, Hungary) supplemented with 2% antibiotic/antimycotic solution (Sigma-Aldrich). Skin samples were then cut into narrow strips and incubated in Dispase solution (Roche Diagnostics, Mannheim, Germany) overnight at 4° C. The epidermis was subsequently separated from the dermis. Fibroblasts were obtained by incubating the dermis in Digestion Mix solution (Collagenase, Hyaluronidase and Deoxyribonuclease) for 2h at 37° C. Cell suspensions were filtered through a 100 μm nylon mesh (BD Falcon, San Jose, Calif., USA) and cells were pelleted by centrifugation. Fibroblasts were grown in low glucose DMEM medium containing 5% FBS, 1% antibiotic/antimycotic (PAA, Pasching, Austria) and 1% L-glutamine solution (PAA). Fibroblasts were cultured at 37° C. and 5% CO2 in humidified conditions. Depending on the cell growth, the medium was changed every 2-4 days and cells were passaged at 80% of confluence.
The human primary fibroblasts (6000 cells/well) and Hl60 cells (20.000 cells/well) were seeded into 96-well plates (Corning Life Sciences) in media. Fibroblasts were cultured overnight before treatment. […] Resazurin reagent was prepared and used as described in Example 1.
Viability was calculated with relation to untreated control cells and blank wells containing media without cells. IC50 values (50% inhibiting concentration) were calculated by GraphPad Prism® 5.

[2] = test system: pAkt (Ser473) in HL-60 cells; assay: flow cytometry of pAkt bright cells (FIG. 2B); format: cell-based, human; details: HL-60, 40 nM, 200 nM and 1 μM
Method: (§1) Human promyelocytic leukemia HL60 Cells (500,000/well) were plated in 24-well tissue culture plates (Corning Life Sciences) in RPMI 10% FCS (Gibco) and were treated with the compounds described in Example 60 and 83 at 40 nM, 200 nM and 1 μM concentrations in 500 μl media. After 24 h incubation time cells with the corresponding supernatants were harvested and centrifuged down (2000 rpm, 5 min).
(§2) Pellets were resuspended and fixed in 3.5% PBS buffered formaldehyde (Molar Chemicals) for 10 minutes. Cells were washed with FACS-buffer (2% FCS, (Gibco) in PBS), centrifuged down (2000 rpm, 5 min). Cells were permeabilized in Permeability buffer (1% FCS, 0.1% saponin (Sigma-Aldrich) in PBS pH 7.4) for 5 minutes. Cells were washed with FACS buffer (2% FCS, (Gibco) in PBS), centrifuged (2000 rpm, 5 min). The following primary antibodies were used: Bcl-xl-Alexa 488, (Cell Signaling, cat. numb. 2767S), dilution 1:75, 24 h; pAkt-Alexa Fluor 488, (Ser473), (Cell Signaling, cat. numb, 4071), dilution 1:50, 24 or 72h; After incubation for 1h at 4° C. samples were washed two times with FACS buffer. […] In order to calculate the signal to noise ratio mean fluorescent intensity (MFI) was calculated by the following equation: =POWER(10; (Medianstained−Median unstained, untreated)/Chd), where Chd means 256, the number of channels per decade (Fajka-Boja et al. 2002; Sharrow 2001) in Microsoft Excel. […]

[3] = test system: active caspase-3 in HL-60 cells; assay: caspase-3 activation by flow cytometric immunofluorescence (FIG. 5); format: cell-based, human; details: HL-60, FIG. 5
Method: as §1, §2

[4] = test system: HeLa (human cervical carcinoma); assay: viability assay (Table 2); format: cell-based
Method: (§3) For viability assays cells were seeded in 96 well plates (MCF7 and 4T1: 6000, HL60: 120.000 cells/well) and incubated overnight. Compounds were dissolved in dimethyl sulfoxide (DMSO). Cells were treated with an increasing concentration of compounds having the general formula (I.) (156 nM-100 μM). Cell viability was determined after 72h incubation. Resazurin reagent (Sigma-Aldrich) was dissolved in PBS (pH 7.4) at 0.15 mg/ml concentration, sterile filtered (0.22 μm, Merck Millipore) and aliquoted at −20° C. Resazurin reagent (Sigma-Aldrich) was added at a final concentration of 25 μg/ml. After 2 hours incubation at 37° C. 5% CO2 fluorescence (530 nm excitation/580 nm emission) was recorded on a multimode microplate reader (Cytofluor4000, PerSeptive Biosytems). Viability was calculated with relation to untreated control cells and blank wells containing media without cells. IC50 values (50% inhibiting concentration) were calculated by GraphPad Prism® 5 (La Jolla, Calif., USA).
(§4) GBM2 (human glioblastoma), HeLa (human cervical carcinoma), MIA PaCa-2 (human pancreas carcinoma) and U87MG (human glioblastoma) cells were maintained in Dulbecco's Modified Eagle Medium (DMEM) 10% fetal calf serum (FCS, Gibco). A375 (human melanoma), A549 (human lung adenocarcinoma) and HEP3B (human hepatoma) cells were maintained in Dulbecco's Modified Eagle Medium/Nutrient Mixture F-12 (DMEM/F12) 10% FCS.
(§5) Media were supplemented with 2 mM GlutaMAX, and 100 U/mL penicillin, 100 μg/mL streptomycin (Life Technologies, Carlsbad, Calif., USA). Cell cultures were maintained at 37° C. in a humidified incubator in an atmosphere of 5% CO2 (Sanyo, Japan).
(§6) Viability assays were performed as described in Example 102.

MOLT4 (human leukemia) = assay: viability assay (Table 2); format: cell-based; details: MOLT-4
Method: as §3
(§7) HT168 (human melanoma), HT199 (human melanoma), HT29 (human colorectal adenocarcinoma), MOLT4 (human leukemia) and U937 (human lymphoma) cells were maintained in Roswell Park Memorial Institute 1640 medium (RPMI-1640) 10% FCS. SKOV-3 cells were maintained in Dulbecco's Modified Eagle Medium/McCoy's medium (DMEM/McCoy) 10% FCS.
as §5, §6

U937 (human lymphoma) = assay: viability assay (Table 2); format: cell-based; details: U-937
Method: as §3, §7, §5, §6

HEP3B (human hepatoma) = assay: viability assay (Table 2); format: cell-based
Method: as §3, §4, §5, §6

[5] = test system: U87MG (human glioblastoma); assay: viability assay (Table 2); format: cell-based; details: U-87 MG, read-out: IC50 U87
Method: as §3, §4, §5, §6

CC(C)(C)Nc1c(C(C)(C)C)[nH]c2c(C(=O)Nc3ccc(N)cc3)cnn12 [Example 83, N-(4-Aminophenyl)-2-(tert-butyl)-3-(tert-butylamino)-1H-imidazo[1,2-b]pyrazole-7-carboxamide]
decrease in viability of human primary fibroblasts [1]: Significant decrease in viability was not apparent | percentage of the pAkt bright cells [2]: increase | percentage of active caspase-3 positive cells [3]: increased | IC50 [4]: 100 nM | IC50 (MOLT4 (human leukemia)): 150 nM | IC50 (U937 (human lymphoma)): 250 nM

CC(C)(C)Nc1c(C(C)(C)C)[nH]c2c(C(=O)Nc3ccc(F)cc3)cnn12 [Example 60, 2-(Tert-butyl)-N-(4-fluorophenyl)-3-((tert-butyl-2-yl)amino)-1H-imidazo[1,2-b]pyrazole-7-carboxamide]
decrease in viability of human primary fibroblasts [1]: Significant decrease in viability was not apparent | percentage of the pAkt bright cells [2]: increase | percentage of active caspase-3 positive cells [3]: increased | IC50 (HEP3B (human hepatoma)): 250 nM | IC50 [5]: 250 nM
